The values that follow come from US9605013B2, “Derivatives of hemin with antibacterial and antiviral activity” (OBSCHESTVO S OGRANICHENNOI OTVETSTVENNOSTIYU …, priority 2011, dated 2017).

Common to all, as to type: cell-based
Assay [1] relates to Staphylococcus aureus No. 3797 (MRSA). The experiment in a line: Antibacterial specific activity, twofold dilutions, visual growth evaluation. To be noted: St. aur No. 3797 MRSA; 36° C., 24 hours. In outline: (§1)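 Strains are exposed at a constant inoculum of 5×10^5 CFU/ml to serial twofold compound dilutions prepared from water or DMSO stocks. After 24 hours at 36° C., visual comparison with growth controls gives the MIC as the last dilution without growth.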

In assay [2] the test system is Staphylococcus aureus No. 5 (MRSA). The assay is described as above. Conditions: St. aur No. 5 MRSA; 36° C., 24 hours. In outline: as §1
For assay [3], the system named is Staphylococcus epidermidis No. 533. The assay is described as above. Conditions: S. epidermis 533; 36° C., 24 hours. In a few lines: as §1
Assay [4] deals with Staphylococcus aureus No. 25923 ATCC. Described as above. To be noted: S. aureus 25923; 36° C., 24 hours. In a few lines: as §1
Another assay deals with Escherichia coli 4300. Described as above. To be noted: E. coli 4300; 36° C., 24 hours.
Assay [5] deals with Vancomycin-resistant Enterococcus faecium 569. The assay is described as above. Conditions: Vancomycin-resistant E. faecium 569; 36° C., 24 hours. In a few lines: as §1
Assay [6] deals with Micrococcus luteus BKM Ac-2230. Kind of assay: Antibacterial activity, serial dilutions in liquid MH medium. Conditions: for MIC: MH medium, 20 h, 37° C., 100% growth inhibition; for MBC: no colonies on agarized MH medium. In a few lines:
(§2)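 Broth microdilution in Mueller-Hinton medium at 37 °C with stirring, using exponential-phase cultures seeded at 5×10^4 to 1×10^5 cells/mL with twofold serial compound dilutions. Growth inhibition read as A595 after 20 h, corrected for compound absorbance; MIC and MBC determined.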

Assay [7] deals with Bacillus subtilis BKM B-501. Described as above. Conditions: for MIC: MH medium, 20 h, 37° C., 100% growth inhibition; for MBC: no colonies on agarized MH medium. In outline:
as §2

Assay [8] deals with Staphylococcus aureus 209P. Described as above. To be noted: for MBC: no colonies on agarized MH medium. In outline: as §2

In the case of “6,7-bis-(Amide N^α-Glycyl)-Protohemin (IX) [IV]”, the MIC in assay [1] was 3.12 µM; in [2], 3.12 µM; in assay [3], 1.56 µM; in assay [4], 0.39 µM; in the assay on Escherichia coli 4300, over 50.0 µM; in assay [5], 50 µM. The figures for the MIC in assay [6] and in assay [7] were 0.8 µM and 1.6 µM, respectively. Moreover, the MBC in assay [6] is 0.8 µM; in assay [7], 1.6 µM.
Regarding “6,7-bis-[(Diamide N^α-L-Arginyl)-L-glutamyl]-Protohemin (IX)”, the MIC was 0.78 µM in assay [3]; 1.56 µM in assay [4]; 16.6 µM with Escherichia coli 4300; 6.25 µM in [5]; 0.8 µM in assay [6]; 1.6 µM in assay [7]. Further, the MBC in [8] amounted to 25 µM; in assay [6], 0.8 µM; in assay [7], 1.6 µM.
As to `C=CC1=C(C)c2cc3[n-]c(cc4[n-]c(cc5nc(cc1n2)C(C)=C5C=C)c(C)c4CCC(=O)N[C@@H](CCCNC(=N)N)C(N)=O)c(CCC(=O)N[C@@H](CCCNC(=N)N)C(N)=O)c3C.[Cl-].[Fe+3]` [II, 6,7-bis-(Amide N^α-Arginyl)-Protohemin (IX)], the MIC amounted to 50 µM in [1]; 41 µM in [2]; 0.39 µM in assay [3]; 1.04 µM in [4]; 41.6 µM against Escherichia coli 4300; 3.12 µM in [5]. Moreover, the MIC in [6] and in assay [7] was 0.8 µM each time. In addition, the MBC in assay [8] was determined as 6.3 µM; in assay [6], 0.8 µM; in [7], 0.8 µM.
Consider `C=CC1=C(C)c2cc3[n-]c(cc4[n-]c(cc5nc(cc1n2)C(C)=C5C=C)c(C)c4CCC(=O)N[C@@H](CO)C(N)=O)c(CCC(=O)N[C@@H](CO)C(N)=O)c3C.[Cl-].[Fe+3]` [V, 6,7-bis-(Amide N^α-Seryl)-Protohemin (IX)], for which the MIC was 1.56 µM in [1]; 1.56 µM in assay [2]; 1.56 µM in assay [3]; 0.78 µM in [4]; over 50.0 µM against Escherichia coli 4300; 25 µM in assay [5]. Besides, the MIC in assay [6] is 0.8 µM; in assay [7], 1.6 µM. Besides, the results for the MBC in assay [8], in assay [6] and in assay [7] were 12.5 µM, 0.8 µM and 1.6 µM, respectively.
Regarding `C=CC1=C(C)c2cc3[n-]c(cc4[n-]c(cc5nc(cc1n2)C(C)=C5C=C)c(C)c4CCC(=O)N[C@@H](CO)C(=O)O)c(CCC(=O)N[C@@H](CO)C(=O)O)c3C.[Cl-].[Fe+3]` [VI, 6,7-bis-(N^α-Seryl]-Protohemin (IX)], the MIC is 0.78 µM in assay [1]; 0.78 µM in assay [2]; 3.12 µM in assay [3]; 12.5 µM in [4]; over 50.0 µM in the assay on Escherichia coli 4300; over 50.0 µM in [5]. Further, the MIC worked out at 50 µM in assay [8] (MH medium, 20 h, 37° C., 100% growth inhibition); 6.3 µM in [6]; 12.5 µM in assay [7]. Further, the MBC in assay [6] and in [7] was 25 µM in each case.

As a reminder, the MIC is the lowest concentration found to suppress growth. A high value points to a less susceptible organism. A word on the MBC: it is the smallest concentration meeting the test's criterion for killing. Read a low MBC as greater bactericidal potency.
